System: Harding-Passey (HP) melanomas
Assay: Boron concentrations in melanoma tumor, blood and cerebrum of mice after intraperitoneal administration (prompt gamma analysis)
Set-up: species or system female BALB/cJ mice
Details: mouse, in vivo, ip
Description: Aqueous solutions of [^10 B]Na2 B12 H11 SH or [^10 B]Na4 B24 H22 S2 were infused slowly intraperitoneally [~200 μl capacity osmotic pump, model 2001, Alza Corp., Palo Alto, Calif.] or were injected intraperitoneally promptly into 15-20 g female BALB/cJ mice bearing subcutaneously implanted Harding-Passey (HP) melanomas. In experiment 6 (Table 1), 5.3×10^-3 M Na2 S2 O5 was added to retard oxidation of [B12 H11 SH]^2-. Mice were deeply anesthetized with ether and then killed by exsanguination at times specified in Table 1. The osmotic pumps were designed to function for 219±6 hr, although the precise duration of their infusion in each mouse is unknown.
Tissue and blood specimens in quartz test tubes, with sufficient H2 O added to bring each sample to a total weight of 1.00 g, were analyzed for boron by counting 478 keV gamma photons from the ^10 B(n,αγ)^7 Li reaction during irradiation by slow neutrons.

Na2 B12 H11 SH
Blood boron concentration (34.5 mg/kg, 24 h): 6.3 ± 2.2 μgB/g
Cerebrum boron concentration (34.5 mg/kg, 24 h): 4.9 ± 3.8 μgB/g
Concentration ratio Tumor:Blood (34.5 mg/kg, 24 h): 1.0
Tumor boron concentration (34.5 mg/kg, 24 h): 6.3 ± 2.2 μgB/g
Blood boron concentration (35.4 mg/kg, 6 h): 3.8 ± 9.9 μgB/g
Cerebrum boron concentration (35.4 mg/kg, 6 h): 3.8 ± 3.4 μgB/g
Concentration ratio Tumor:Blood (35.4 mg/kg, 6 h): 2.3
Tumor boron concentration (35.4 mg/kg, 6 h): 8.7 ± 9.9 μgB/g
Blood boron concentration (35.5 mg/kg, 12 h): 5.5 ± 4.8 μgB/g
Cerebrum boron concentration (35.5 mg/kg, 12 h): 0.9 ± 1.6 μgB/g
Concentration ratio Tumor:Blood (35.5 mg/kg, 12 h): 1.0
Tumor boron concentration (35.5 mg/kg, 12 h): 5.5 ± 4.8 μgB/g
Blood boron concentration (187 mg/kg, 190 h): 13.2 ± 6.3 μgB/g
Cerebrum boron concentration (187 mg/kg, 190 h): 7.0 μgB/g
Concentration ratio Tumor:Blood (187 mg/kg, 190 h): 1.0
Tumor boron concentration (187 mg/kg, 190 h): 12.6 ± 1.7 μgB/g
Blood boron concentration (187 mg/kg, 219 h): 4.9 ± 1.1 μgB/g
Cerebrum boron concentration (187 mg/kg, 219 h): 1.0 ± 0.4 μgB/g
Concentration ratio Tumor:Blood (187 mg/kg, 219 h): 1.6
Tumor boron concentration (187 mg/kg, 219 h): 7.9 ± 1.5 μgB/g
Blood boron concentration (195 mg/kg, 219 h): 5.5 ± 3.0 μgB/g
Cerebrum boron concentration (195 mg/kg, 219 h): 1.2 ± 1.0 μgB/g
Concentration ratio Tumor:Blood (195 mg/kg, 219 h): 1.5
Tumor boron concentration (195 mg/kg, 219 h): 8.5 ± 2.9 μgB/g
Blood boron concentration (262 mg/kg, 234 h): 7.7 ± 4.6 μgB/g
Cerebrum boron concentration (262 mg/kg, 234 h): 3.2 ± 0.0 μgB/g
Concentration ratio Tumor:Blood (262 mg/kg, 234 h): 1.8
Tumor boron concentration (262 mg/kg, 234 h): 14.1 ± 1.1 μgB/g

Source: patent publication USH505H, “Boron uptake in tumors, cerebrum and blood from [10B]NA4B24H22S2” (The United States of America as represented by the United …, priority 1986, dated 1988)
